Data set [1] can be described thus: Drug uptake in tumor of nude mouse xenografted with human HT-29 cells at 50 mg/kg, po after 24 hrs. Conditions: read-out: Drug uptake. Set-up: dose 50 mg/kg, route oral. The class given is ADME, organism-based, Neoplasm. For orientation: A xenograft is tissue or cells of one species grown in another, often human tumour cells in immunodeficient mice.
Data set [2] is described as follows: Drug uptake in tumor of nude mouse xenografted with human HT-29 cells at 50 mg/kg, po after 48 hrs. In kind it is ADME, organism-based, Neoplasm. More on the design: dose 50 mg/kg, route oral. Particulars: read-out: Drug uptake.
Data set [3] in a line: Drug uptake in tumor of nude mouse xenografted with human HT-29 cells at 50 mg/kg, po after 72 hrs. The class given is ADME, organism-based, Neoplasm. Set-up: dose 50 mg/kg, route oral. Particulars: read-out: Drug uptake.
Data set [4] is described as follows: Drug uptake in tumor of nude mouse xenografted with human HT-29 cells at 25 mg/kg, po after 48 hrs. Set-up: dose 25 mg/kg, route oral. Conditions: read-out: Drug uptake. In kind it is ADME, organism-based, Neoplasm.
The nature of data set [5]: Volume of distribution at steady state in nude NCR mouse at 2 mg/kg, iv. In kind it is ADME, organism-based. More on the design: dose 2 mg/kg, route intravenous. Conditions: in vivo, read-out: Vdss.
A short description of data set [6]: Drug uptake in tumor of nude mouse xenografted with human HT-29 cells at 6.25 mg/kg, po after 72 hrs. In kind it is ADME, organism-based, Neoplasm. Set-up: dose 6.25 mg/kg, route oral. Particulars: read-out: Drug uptake.
The nature of data set [7]: Plasma clearance in Sprague-Dawley rat at 1 mg/kg, iv. The class given is ADME, organism-based. More on the design: dose 1 mg/kg, route intravenous.
A short description of data set [8]: Drug uptake in tumor of nude mouse xenografted with human HT-29 cells at 25 mg/kg, po after 24 hrs. In kind it is ADME, organism-based, Neoplasm. Set-up: dose 25 mg/kg, route oral. Particulars: read-out: Drug uptake.
Data set [9] can be described thus: Drug uptake in tumor of nude mouse xenografted with human HT-29 cells at 12.5 mg/kg, po after 24 hrs. More on the design: dose 12.5 mg/kg, route oral. In kind it is ADME, organism-based, Neoplasm. Particulars: read-out: Drug uptake.
Data set [10] is described as follows: Half life in nude NCR mouse at 2 mg/kg, iv. In kind it is ADME, organism-based. More on the design: dose 2 mg/kg, route intravenous. Conditions: in vivo.
A short description of data set [11]: Drug uptake in tumor of nude mouse xenografted with human HT-29 cells at 25 mg/kg, po after 72 hrs. Set-up: dose 25 mg/kg, route oral. Conditions: read-out: Drug uptake. The class given is ADME, organism-based, Neoplasm.
Data set [12] is described as follows: Cmax in Sprague-Dawley rat at 5 mg/kg, po. The class given is ADME, organism-based. Conditions: in vivo. Set-up: dose 5 mg/kg, route oral.
Data set [13] is described as follows: Half life in Sprague-Dawley rat at 1 mg/kg, iv. In kind it is ADME, organism-based. More on the design: dose 1 mg/kg, route intravenous. Particulars: in vivo.
Data set [14] can be described thus: Cmax in nude NCR mouse at 12.5 mg/kg, po. Set-up: dose 12.5 mg/kg, route oral. Conditions: in vivo. The class given is ADME, organism-based.
Data set [15] can be described thus: Drug uptake in tumor of nude mouse xenografted with human HT-29 cells at 6.25 mg/kg, po after 24 hrs. The class given is ADME, organism-based, Neoplasm. More on the design: dose 6.25 mg/kg, route oral. Particulars: read-out: Drug uptake.
A short description of data set [16]: Toxicity in po dosed nude mouse administered once daily. The class given is organism-based. Particulars: in vivo.
Data set [17] in a line: Toxicity in po dosed nude mouse administered qd for 1 day in a week. In kind it is organism-based. Conditions: in vivo.
Data set [18] can be described thus: Oral bioavailability in Sprague-Dawley rat at 5 mg/kg. The class given is ADME, organism-based. Conditions: in vivo.
A short description of data set [19]: Toxicity in po dosed nude mouse administered qd for 3 days in a week. The class given is organism-based. Particulars: in vivo.
The nature of data set [20]: Volume of distribution at steady state in Sprague-Dawley rat at 1 mg/kg, iv. The class given is ADME, organism-based. More on the design: dose 1 mg/kg, route intravenous. Conditions: in vivo, read-out: Vdss.
The nature of data set [21]: Drug uptake in tumor of nude mouse xenografted with human HT-29 cells at 12.5 mg/kg, po after 72 hrs. In kind it is ADME, organism-based, Neoplasm. Set-up: dose 12.5 mg/kg, route oral. Conditions: read-out: Drug uptake.
A short description of data set [22]: Tmax in nude NCR mouse at 12.5 mg/kg, po. The class given is ADME, organism-based. More on the design: dose 12.5 mg/kg, route oral. Conditions: in vivo.
A short description of data set [23]: Drug uptake in tumor of nude mouse xenografted with human HT-29 cells at 6.25 mg/kg, po after 48 hrs. The class given is ADME, organism-based, Neoplasm. Set-up: dose 6.25 mg/kg, route oral. Conditions: read-out: Drug uptake.
The nature of data set [24]: Plasma clearance in nude NCR mouse at 2 mg/kg, iv. The class given is ADME, organism-based. Set-up: dose 2 mg/kg, route intravenous.
The nature of data set [25]: Tmax in Sprague-Dawley rat at 5 mg/kg, po. More on the design: dose 5 mg/kg, route oral. In kind it is ADME, organism-based. Particulars: in vivo.
Data set [26] is described as follows: Drug uptake in tumor of nude mouse xenografted with human HT-29 cells at 12.5 mg/kg, po after 48 hrs. In kind it is ADME, organism-based, Neoplasm. Set-up: dose 12.5 mg/kg, route oral. Particulars: read-out: Drug uptake.
Data set [27] is described as follows: Oral bioavailability in nude NCR mouse at 12.5 mg/kg. Conditions: in vivo. The class given is ADME, organism-based.

For `Cc1ncc(CCCN(C)C)cc1Nc1ncc2c(n1)-c1ccc(Cl)cc1NC(=S)C2`, in [1], the concentration at 24 h is 1080 nM. In [2], the concentration at 48 h was found to be 332 nM. In addition, the concentration at 72 h in [3] amounted to 60.3 nM.
For `Cc1ncc(CCCN(C)C)cc1Nc1ncc2c(n1)-c1ccc(C(F)(F)F)cc1NC(=S)C2`, the concentration at 48 h came to 369 nM in data set [4], 476 nM in data set [2], 121 nM in data set [23] and 353 nM in [26]. For the same molecule, the Vd worked out at 6.2 L/kg in data set [5] and 10.2 L/kg in data set [20]. Also, the concentration at 72 h came to 98 nM in data set [6], 163 nM in [11], 376 nM in data set [3] and 139 nM in [21]. Further, the concentration at 24 h was 1470 nM in data set [1], 920 nM in data set [8], 339 nM in data set [9] and 239 nM in data set [15]. For the same molecule, the clearance in data set [7] was 38.3 mL/min/kg; in data set [24], 41.7 mL/min/kg. Besides, the half-life in data set [10] was 3.4 h; in [13] it was 4.7 h. Also, the Cmax worked out at 335 nM in [12] and 720 nM in [14]. In data set [16], this molecule showed an MTD of 12.5 mg/kg. This molecule had an MTD at 24 h in [17] of 50 mg/kg. Further, the bioavailability in data set [18] came out at 72%; in data set [27], 45%. The same molecule gave an MTD at 72 h in [19] of 25 mg/kg. Also, the time to peak (Tmax) in data set [22] and in [25] was 4 h throughout.

One may read the clearance as the rate of elimination divided by the concentration. Low values mean a low capacity for elimination, high ones a high capacity for elimination. For orientation: half-life means the time needed for the level to fall by half in the phase considered. Broadly, the Cmax is the peak of the concentration-time curve. The bioavailability is dose-corrected exposure relative to a reference, in per cent. Lower therefore signals poor availability. The term Tmax denotes the time from dosing to the highest level.

For the origin of these results see ChEMBL document CHEMBL1944579, “Discovery of a potent and orally bioavailable benzolactam-derived inhibitor of Polo-like kinase 1 (MLN0905)” (J Med Chem, 2012).
